This note sets out measurements from patent publication US20100152114A1, “Antioxidant activity of GH-RH Antagonists” (priority 2008, published 2010).

Holding throughout (assay type): cell-based
The subject of one experiment is caspase 3. Briefly: Western Blot of caspase 3 in LNCaP cells. The conditions noted are these: 1 μM, 72 hours, control R.I: 0.108. How it is done:
(A): is a Western Blot analysis of expression of the phosphorylated NFκB p50, caspase 3 protein and its cleaved form in LNCaP prostate cancer cell line after exposure to GHRH antagonist JMR-132 and GHRH (1-29)NH2. n=2
(§1) Prostate cancer cells LNCaP and breast cancer cells MCF-7 were obtained from American Type Culture Collection (Manassas, Va.) and were cultured as described previously. The antibodies that detect P53, PCNA, GPX1, SOD1, NQ01, Thioredoxin 1, COX2 and COX IV were purchased from Cell Signalling (Danvers, Mass.). The antibodies that detect β actin, NFκB50, pNFκB50, caspase 3 and its cleaved form were purchased from Santa Cruz Biotechnology (Santa Cruz, Calif.). The antibodies against GHRH-R (batch number: SV95) and SV1 (batch number: JH 2317/5) were raised in our laboratory. The signals for the immunoreactive proteins were visualized in a Chemi Doc XRS system (Biorad, Hercules, Calif.). The western Blot assay as well the quantification analysis of the blots was performed as described previously.
LNCaP cells cultured in vitro were exposed to 1 μM GHRH antagonist JMR-132 and 1 μM GHRH(1-29)NH2. The expression levels of NFκB p50, the phosphorylated NFκB p50, caspase 3 (M.W: 35 KDa) and the cleaved caspase 3 were detected by Western Blot. […]

Another experiment relates to GPX1. Put plainly: Western Blot of GPX1 in LNCaP cells. The conditions noted are these: 1 μM, 72 hour exposure, control R.I: 0.107. How it is done: (§2) FIG. 7: is a Western Blot analysis of expression of the antioxidant enzymes TRX1, NQ01, GPX1 and SOD1 in LNCaP prostate cancer cell line after 72 hour exposure to GHRH antagonist JMR-132 and GHRH(1-29)NH2 n=2.
as §1
(§3) LNCaP prostate cancer cell line cultured in vitro was exposed to 1 μM JMR-132 and GHRH(1-29)NH2. The expression levels of the detoxifying enzymes were measured by Western Blot. The GPX1 (M.W: 22 Kda) protein expression was higher in the cells exposed to GHRH (1-29)NH2 (R.I: 0.126) and lower in the cells incubated with GHRH antagonist JMR-132 (R.I: 0.035), as compared to control (R.I:0.107). […]

The next experiment relates to thioredoxin 1. Put plainly: Western Blot of thioredoxin 1 in LNCaP cells. The note with it: 1 μM, 72 hour exposure, control R.I: 0.210. On the procedure: as §2, §1, §3
A further experiment relates to COX 2. Put plainly: Western Blot of COX 2 in LNCaP cells. The conditions noted are these: 1 μM, 72 hour incubation, control R.I: 0.822. How it is done:
(§4) FIG. 4: is a Western Blot analysis of expression of the enzyme COX2 and COXIV enzymes in LNCaP prostate cancer cell line after 72 hour incubation with GHRH antagonist JMR-132 and GHRH(1-29)NH2. n=2
as §1
(§5) After LNCaP prostate cancer cells cultured in vitro were exposed to 1 μM GHRH antagonist JMR-132 and GHRH(1-29)NH2, the expression levels of the enzymes COX 2 and COX IV were measured by Western Blot. […]

For a further experiment, the system named is COX IV. Put plainly: Western Blot of COX IV in LNCaP cells. The note with it: 1 μM, 72 hour incubation, control R.I: 0.139. How it is done: as §4, §1, §5
A general note: A western blot detects proteins with antibodies after separation by electrophoresis.

Another experiment has as its system reactive oxygen species. Briefly: Intracellular generation of reactive oxygen species (aminophenyl fluorescein) in LNCaP cells. The conditions noted are these: 10^−6 M, 30 minutes at 37° C. How it is done:
Percentage increase or decrease are expressed vs LNCaP cells cultured in the absence of JMR-132 or GHRH (1-29)NH2. *** (P<0.005).
The detection of the Reactive Oxygen Species was carried out using aminophenyl fluorescein, an indicator for the highly reactive oxygen species (Invitrogen, Carlsbad, Calif., USA). This fluorescein derivative is non fluorescent until it reacts with the hydroxyl radical, peroxynitrite anion or hypochlorite anion. […] LNCaP prostate cancer cells were seeded in 200 μl of RPMI 1640 containing 10 μM aminophenyl fluorescein at a density of 10^3 cells/well onto a 48-well plate and were incubated for 30 minutes at 37° C. with GHRH (1-29)NH2 or JMR-132 at a concentration of 10^−6 M. The fluorescence was measured using a fluorescence plate reader (VICTOR^3 Multilabel Plate Reader, Perkin Elmer, Shelton, Conn., USA) with an excitation wavelength of 490 nm and an emission wavelength of 515 nm.
LNCaP prostate cancer cell line cultured in vitro were exposed to 1 μM JMR-132 or 1 μM GHRH(1-29)NH2. The levels of the oxidation of the proteins were determined by the detection of the N-nitrotyrosine and the protein carbonyl groups. Both were elevated in the cells exposed to GHRH (1-29)NH2 (R.I: 3.282, 7.415) and decreased in the cells incubated with GHRH antagonist JMR-132 (R.I: 1.251, 4.275), as compared to control (R.I: 2.903, 5.846). […]

Ends that are not written are not given here.

Regarding “GHRH(1-29)NH2 (YADAIFTNSYRKVLGQLSARKLLQDIMSR-NH2; UniProt P01286 32-60, looked up, fragment) [Growth Hormone-Releasing Hormone (1-29) amide, agonist peptide used for comparison with the antagonist]”, the “expression of caspase 3 protein (R.I)” value in the experiment on caspase 3 came to 0.083. The “GPX1 protein expression (R.I)” value in the experiment with GPX1 was found to be 0.126. Further, the “levels of the thioredoxin 1 protein (R.I)” value in the experiment on thioredoxin 1 was 0.277. The “COX 2 protein expression (R.I)” value with COX 2 is reported as 0.928. Besides, the “COX IV protein expression (R.I)” value in the experiment with COX IV was determined as 0.237. In addition, in the experiment on reactive oxygen species, the “generation of the reactive oxygen species, higher than control” value is given as 36%.
Turning to “[PhAc^0-Tyr^1, D-Arg^2, Cpa^6, Ala^8, Har^9, Tyr(Me)^10, His^11, Abu^15, His^20, Nle^27, D-Arg^28, Har^29]hGH-RH(1-29)NH2 [JMR-132]”, the “expression of caspase 3 protein (R.I)” value in the experiment on caspase 3 was found to be 0.120. For the same substance, the “GPX1 protein expression (R.I)” value in the experiment with GPX1 came to 0.035. In the experiment with thioredoxin 1, the “levels of the thioredoxin 1 protein (R.I)” value came to 0.196. Besides, the “COX 2 protein expression (R.I)” value in the experiment with COX 2 is recorded as 0.532. In addition, in the experiment on COX IV, the “COX IV protein expression (R.I)” value is 0.077. Moreover, the “generation of the reactive oxygen species, lower than control” value with reactive oxygen species is 23%.
